Source: US20120245154A1, “SUBSTITUTED AMINOTHIAZINE DERIVATIVE” (SHIONOGI & CO., LTD., priority 2009, published 2012)
Each block holds one compound with its values, some of them ahead of it.

Tests used:
CYP3A4 [1] = target: T1, CYP3A4 (Homo sapiens, UniProt P08684); assay: CYP3A4 fluorescent MBI test; format: in vitro ADME; parameters: host or cells: Escherichia coli; settings: CYP3A4 expressed in Escherichia coli, substrate 7-BFC
Experimental: The CYP3A4 fluorescent MBI test is a test of investigating enhancement of CYP3A4 inhibition of a compound by a metabolism reaction, and the test was performed using, as CYP3A4 enzyme expressed in Escherichia coli and employing, as an index, a reaction in which 7-benzyloxytrifluoromethylchmarin (7-BFC) is debenzylated by the CYP3A4 enzyme to produce a metabolite, 7-hydroxytrifluoromethylchmarin (HFC) emitting fluorescent light.
The reaction conditions were as follows: substrate, 5.6 μmol/L 7-BFC; pre-reaction time, 0 or 30 minutes; reaction time, 15 minutes; reaction temperature, 25° C. […]
An enzyme in a K-Pi buffer (pH 7.4) and a test drug solution as a pre-reaction solution were added to a 96-well plate at the composition of the pre-reaction, a part of it was transferred to another 96-well plate so that it was 1/10 diluted by a substrate in a K-Pi buffer, NADPH as a co-factor was added to initiate a reaction as an index (without preincubation) and, after a predetermined time of a reaction, acetonitrile/0.5 mol/L Tris (trishydroxyaminomethane)=4/1 was added to stop the reaction. […] For the plate on which each index reaction had been performed, a fluorescent value of 7-HFC which is a metabolite was measured with a fluorescent plate reader. […]

Solubility test = format: physicochemical; settings: JP-I medium, pH 1.2, simulated gastric fluid, kinetic from dmso stock, from turbidity after 4 hours, read-out: solubility assessed by 3 stages
Experimental: A 2-fold dilution series (12 points) of a 10 mM solution of a test compound in DMSO was added to a medium (JP-I, JP-II) (2%), and solubility was assessed by 3 stages (High; >40 μM, Medium; 3-40 μM, Low; <3 μM) from a turbidity after 4 hours (crystallization information).
The preparation method of solution was as follows: A 10 mM solution of the compound was prepared with DMSO, and 6 μL of the compound solution was added to 594 μL of an artificial intestinal juice (water and 118 mL of 0.2 mol/L NaOH reagent were added to 250 mL of 0.2 mol/L potassium dihydrogen phosphate reagent to reach 1000 mL) with a pH of 6.8. The mixture was left standing for 16 hours at 25° C., and the mixture was vacuum-filtered. The filtrate was two-fold diluted with methanol/water=1/1.

CYP1A2 = target: T2, CYP1A2 (Homo sapiens, UniProt P05177); assay: CYP inhibition test (7-ethoxyresorufin O-deethylation); format: in vitro ADME; settings: pooled human hepatic microsome, 0.5 μmol/L ethoxyresorufin
T2 construct: enzyme, pooled human hepatic microsome 0.2 mg protein/mL; from tissue; host or cells: pooled human hepatic microsomes
T2 sequence (P05177 1-516): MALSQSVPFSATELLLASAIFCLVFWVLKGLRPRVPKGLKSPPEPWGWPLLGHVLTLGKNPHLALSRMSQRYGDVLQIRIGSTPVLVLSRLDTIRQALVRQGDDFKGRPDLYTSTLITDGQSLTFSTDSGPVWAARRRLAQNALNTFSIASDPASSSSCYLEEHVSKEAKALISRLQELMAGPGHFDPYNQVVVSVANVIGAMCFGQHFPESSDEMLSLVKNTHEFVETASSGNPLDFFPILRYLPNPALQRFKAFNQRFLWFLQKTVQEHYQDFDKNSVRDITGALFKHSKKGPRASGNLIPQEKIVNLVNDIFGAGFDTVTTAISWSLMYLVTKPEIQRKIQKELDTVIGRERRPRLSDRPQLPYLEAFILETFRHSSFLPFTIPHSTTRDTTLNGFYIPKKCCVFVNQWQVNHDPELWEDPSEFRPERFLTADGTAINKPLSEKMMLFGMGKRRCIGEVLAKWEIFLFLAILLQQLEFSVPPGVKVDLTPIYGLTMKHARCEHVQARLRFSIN
Experimental: (§1) Using commercially available pooled human hepatic microsome, and employing, as markers, 7-ethoxyresorufin O-deethylation (CYP1A2), tolbutamide methyl-hydroxylation (CYP2C9), mephenyloin 4′-hydroxylation (CYP2C19), dextromethorphan O-demethylation (CYP2D6), and terfenedine hydroxylation (CYP3A4) as typical substrate metabolism reactions of human main five CYP enzyme forms (CYP1A2, 2C9, 2C19, 2D6, 3A4), an inhibitory degree of each metabolite production amount by a test compound was assessed. […]
(§2) Each five kinds of substrates, human hepatic microsome, or a test drug in 50 mM Hepes buffer as a reaction solution was added to a 96-well plate at the composition as described above, NADPH, as a cofactor was added to initiate metabolism reactions as markers and, after the incubation at 37° C. for 15 minutes, a methanol/acetonitrile=1/1 (v/v) solution was added to stop the reaction. After the centrifugation at 3000 rpm for 15 minutes, resorufin (CYP1A2 metabolite) in the supernatant was quantified by a fluorescent multilabel counter and tributamide hydroxide (CYP2CP metabolite), mephenyloin 4′ hydroxide (CYP2C19 metabolite), […], and terfenadine alcohol (CYP3A4 metabolite) were quantified by LC/MS/MS. […]

CYP3A4 [2] = target: T1, CYP3A4; assay: CYP inhibition test (terfenedine hydroxylation); format: in vitro ADME; parameters: enzyme, pooled human hepatic microsome 0.2 mg protein/mL; from tissue; host or cells: pooled human hepatic microsomes; settings: pooled human hepatic microsome, 1 μmol/L terfenedine
Experimental: as §1, §2

CYP2C9 = target: T3, CYP2C9 (Homo sapiens, UniProt P11712); assay: CYP inhibition test (tolbutamide methyl-hydroxylation); format: in vitro ADME; settings: pooled human hepatic microsome
T3 construct: enzyme, pooled human hepatic microsome 0.2 mg protein/mL; from tissue; host or cells: pooled human hepatic microsomes
Experimental: as §1, §2

CYP2C19 = target: T4, CYP2C19 (Homo sapiens, UniProt P33261); assay: CYP inhibition test (mephenyloin 4′-hydroxylation); format: in vitro ADME; settings: pooled human hepatic microsome, 50 μmol/L S-mephenitoin
T4 construct: enzyme, pooled human hepatic microsome 0.2 mg protein/mL; from tissue; host or cells: pooled human hepatic microsomes
Experimental: as §1, §2

CYP2D6 = target: T5, CYP2D6 (Homo sapiens, UniProt P10635); assay: CYP inhibition test (dextromethorphan O-demethylation); format: in vitro ADME; settings: pooled human hepatic microsome, 5 μmol/L dextromethorphan
T5 construct: enzyme, pooled human hepatic microsome 0.2 mg protein/mL; from tissue; host or cells: pooled human hepatic microsomes
Experimental: as §1, §2

[3] = Metabolism stability test; format: in vitro ADME; settings: human liver microsomes 0.5 mg protein/mL, 1 mmol/L NADPH, 37° C., 30 minutes
Experimental: Using a commercially available pooled human hepatic microsomes, a test compound was reacted for a constant time, a remaining rate was calculated by comparing a reacted sample and an unreacted sample, thereby, a degree of metabolism in liver was assessed.
A reaction was performed (oxidative reaction) at 37° C. for 0 minute or 30 minutes in the presence of 1 mmol/L NADPH in 0.2 mL of a buffer (50 mmol/L Tris-HCl pH 7.4, 150 mmol/L potassium chloride, 10 mmol/L magnesium chloride) containing 0.5 mg protein/mL of human liver microsomes. After the reaction, 50 μL of the reaction solution was added to 100 μL of a methanol/acetonitrile=1/1 (v/v), mixed and centrifuged at 3000 rpm for 15 minutes. The test compound in the supernatant was quantified by LC/MS/MS, and a remaining amount of the test compound after the reaction was calculated, letting a compound amount at 0 minute reaction time to be 100%.

Recombinant human BACE1 = target: T6, Recombinant human BACE1 (Homo sapiens, UniProt P56817); assay: Assay of BACE1 inhibiting activity; format: biochemical; settings: Recombinant human BACE1 7.4 nM, substrate peptide 18 nM, pH 5.0, 30° C., 3 hours; read-out: IC50 (50% inhibitory concentration against the enzymatic activity)
T6 construct: purchased R&D Systems
Experimental: 48.5 μL of substrate peptide solution (Biotin-XSEVNLDAEFRHDSGC-Eu: X=ε-amino-n-capronic acid, Eu=Europium cryptate) was added to each well of 96-hole half-area plate (a black plate: Corning Incorporated), and after addition of 0.5 μl of the test compound (dissolved in […]) and 1 μl of Recombinant human BACE1(R&D Systems), the reaction mixture was incubated at 30° C. for 3 hours. The substrate peptide was synthesized by reacting Cryptate TBPCOOH mono SMP (CIS bio international) with Biotin-XSEVNLDAEFRHDSGC (Peptide Institute, Inc.). […]
After the incubation for reaction, 50 μl of 8.0 μg/ml Streptavidin-XL665(CIS bio international) dissolved in phosphate buffer (150 mM K2HPO4—KH2PO4, pH 7.0, 0.008% Triton X-100, 0.8 M KF) was added to each well and left stand at 30° C. for an hour. After then, fluorescence intensity was measured (excitation wavelength: 320 nm, measuring wavelength: 620 nm and 665 nm) using Wallac 1420 multilabel counter (Perkin Elmer life sciences). Enzymatic activity was determined from counting ratio of each wavelength (10,000×Count 665/Count 620) and 50% inhibitory concentration against the enzymatic activity was calculated.

[4] = tested on: Neuroblastoma SH-SY5Y cells (SH/APPwt) with human wild-type β-APP excessively expressed; assay: Measurement of β-amyloid (Aβ) production inhibitory effect in cell; format: cell-based; settings: 24 hours, Aβ 1-40 in culture supernatant by HTRF, read-out: IC50 (amount needed to inhibit Aβ production by 50%)
Experimental: Neuroblastoma SH-SY5Y cells (SH/APPwt) with human wild-type β-APP excessively expressed therein were prepared at 8×10^5 cells/mL, and 150 μl portions thereof were inoculated into respective wells of a 96-well culture plate (Falcon). The cells were cultured for 2 hours at 37° C. in a 5% gaseous carbon dioxide incubator. Then, a solution which had been preliminarily prepared by adding and suspending the test compound (DMSO (dimethyl sulfoxide) solution) so as to be 2 μl/50 μl medium was added to the cell sap. Namely, the final DMSO concentration was 1%, and the amount of the cell culture was 200 μl. After the incubation was performed for 24 hours from the addition of the test compound, 100 μl of the culture supernatant was collected from each fraction. The amount of the Aβ in each fraction was measured.
The Aβ amount was measured as follows. 10 μl of a homogeneous time resolved fluorescence (HTRF) measurement reagent (Amyloid-β 1-40 peptide; IBA Molecular Holding, S.A.) and 10 μl of the culture supernatant were put into a 384-well half area microplate (black microplate, Costar) and mixed with each other, and then left standing overnight at 4° C. while the light was shielded. Then, the fluorescence intensity (excitation wavelength: 337 nm, measurement wavelength: 620 nm and 665 nm) was measured with a Wallac 1420 multilabel counter (Perkin Elmer life sciences). […]

T1 sequence (P08684 whole entry): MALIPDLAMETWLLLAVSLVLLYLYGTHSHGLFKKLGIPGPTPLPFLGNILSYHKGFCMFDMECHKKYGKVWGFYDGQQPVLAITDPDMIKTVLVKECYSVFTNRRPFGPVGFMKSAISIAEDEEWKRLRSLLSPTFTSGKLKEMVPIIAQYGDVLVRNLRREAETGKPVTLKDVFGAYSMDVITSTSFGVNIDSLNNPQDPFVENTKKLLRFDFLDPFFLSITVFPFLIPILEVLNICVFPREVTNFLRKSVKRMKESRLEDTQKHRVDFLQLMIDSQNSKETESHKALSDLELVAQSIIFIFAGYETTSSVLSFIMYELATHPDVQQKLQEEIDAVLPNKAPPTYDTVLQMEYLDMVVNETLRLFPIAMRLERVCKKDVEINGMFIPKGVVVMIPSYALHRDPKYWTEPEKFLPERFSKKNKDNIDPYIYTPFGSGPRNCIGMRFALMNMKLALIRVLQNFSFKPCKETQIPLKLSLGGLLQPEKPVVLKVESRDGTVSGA
T6 sequence (P56817 46-501): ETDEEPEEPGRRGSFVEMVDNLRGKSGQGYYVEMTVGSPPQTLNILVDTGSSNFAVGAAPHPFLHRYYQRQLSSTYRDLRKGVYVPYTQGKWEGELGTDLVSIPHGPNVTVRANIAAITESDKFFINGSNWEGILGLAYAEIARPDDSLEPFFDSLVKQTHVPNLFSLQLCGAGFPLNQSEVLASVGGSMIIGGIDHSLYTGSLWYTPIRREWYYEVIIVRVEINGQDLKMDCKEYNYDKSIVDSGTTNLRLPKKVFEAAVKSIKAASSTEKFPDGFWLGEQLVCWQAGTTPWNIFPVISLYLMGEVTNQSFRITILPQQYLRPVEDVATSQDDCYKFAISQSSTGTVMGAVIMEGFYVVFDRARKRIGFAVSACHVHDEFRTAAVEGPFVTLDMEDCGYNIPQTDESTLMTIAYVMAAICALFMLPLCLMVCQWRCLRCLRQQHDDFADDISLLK
T3 sequence (P11712 whole entry): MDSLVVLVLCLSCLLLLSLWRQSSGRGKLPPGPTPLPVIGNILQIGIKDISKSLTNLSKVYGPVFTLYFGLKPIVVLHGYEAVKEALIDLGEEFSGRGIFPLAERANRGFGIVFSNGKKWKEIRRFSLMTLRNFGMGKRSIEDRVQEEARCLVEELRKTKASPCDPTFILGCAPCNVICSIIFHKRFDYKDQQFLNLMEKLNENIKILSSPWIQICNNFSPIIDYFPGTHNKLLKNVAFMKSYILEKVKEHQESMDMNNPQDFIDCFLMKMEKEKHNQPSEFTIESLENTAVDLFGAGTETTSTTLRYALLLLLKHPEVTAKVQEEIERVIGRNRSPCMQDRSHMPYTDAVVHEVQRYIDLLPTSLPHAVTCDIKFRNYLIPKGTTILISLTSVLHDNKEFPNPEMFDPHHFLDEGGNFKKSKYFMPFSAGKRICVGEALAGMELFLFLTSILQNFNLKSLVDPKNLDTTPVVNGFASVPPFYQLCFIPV
T4 sequence (P33261 whole entry): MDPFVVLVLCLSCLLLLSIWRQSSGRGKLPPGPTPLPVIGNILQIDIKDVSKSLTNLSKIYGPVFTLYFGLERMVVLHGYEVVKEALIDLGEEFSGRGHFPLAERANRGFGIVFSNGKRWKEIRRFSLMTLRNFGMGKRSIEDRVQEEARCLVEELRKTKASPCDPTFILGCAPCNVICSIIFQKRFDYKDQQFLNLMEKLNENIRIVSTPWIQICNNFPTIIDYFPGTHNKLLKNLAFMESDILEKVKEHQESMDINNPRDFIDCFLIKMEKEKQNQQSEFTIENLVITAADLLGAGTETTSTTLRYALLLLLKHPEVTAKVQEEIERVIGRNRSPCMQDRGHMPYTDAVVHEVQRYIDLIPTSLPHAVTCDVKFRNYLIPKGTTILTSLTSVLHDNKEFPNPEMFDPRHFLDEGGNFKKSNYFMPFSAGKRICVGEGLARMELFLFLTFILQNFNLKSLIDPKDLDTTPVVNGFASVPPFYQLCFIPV
T5 sequence (P10635 whole entry): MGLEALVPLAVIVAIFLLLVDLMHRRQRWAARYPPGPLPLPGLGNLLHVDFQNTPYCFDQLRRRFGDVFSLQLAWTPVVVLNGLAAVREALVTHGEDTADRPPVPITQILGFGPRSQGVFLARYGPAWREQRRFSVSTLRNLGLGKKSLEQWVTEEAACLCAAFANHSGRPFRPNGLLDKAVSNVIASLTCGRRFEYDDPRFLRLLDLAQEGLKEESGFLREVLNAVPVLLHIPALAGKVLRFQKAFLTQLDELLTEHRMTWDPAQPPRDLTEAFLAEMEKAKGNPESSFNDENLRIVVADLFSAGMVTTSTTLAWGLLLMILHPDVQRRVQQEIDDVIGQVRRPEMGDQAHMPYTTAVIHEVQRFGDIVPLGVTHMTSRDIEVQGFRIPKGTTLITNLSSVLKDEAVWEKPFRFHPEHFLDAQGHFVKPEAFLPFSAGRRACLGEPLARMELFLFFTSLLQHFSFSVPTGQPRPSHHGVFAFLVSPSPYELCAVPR

SMILES: C[C@@]1(c2cc(NC(=O)c3ccc(C#N)cn3)ccc2F)C=C(c2ccccn2)SC(N)=N1 [Compound I-20]
CYP3A4 MBI: difference between IC50 values (pre-reaction time 0 or 30 minutes) (CYP3A4 [1]): (−) (when the difference is 3 μM or less, this was defined as (−))

SMILES: COCCNC(=O)C1=C[C@@](C)(c2cc(NC(=O)c3ccc(C#N)cn3)ccc2F)N=C(N)S1 [Compound I-2]
IC50 (CYP1A2): > 21 µM | IC50 (CYP3A4 [2]): > 21 µM | IC50 (CYP2C9): > 21 µM | IC50 (CYP2C19): > 21 µM | IC50 (CYP2D6): > 21 µM

SMILES: COc1cnc(C(=O)Nc2ccc(F)c([C@]3(C)C=C(C(C)(C)O)SC(N)=N3)c2)cn1 [Compound I-19]
remaining amount of the test compound after the reaction [3]: 96.4%

Second part, the compound after the results:

solubility at 4 h (Solubility test): > 40 µM
SMILES: C[C@@]1(c2cc(NC(=O)c3ccc(C#N)cn3)ccc2F)C=C(CO)SC(N)=N1 [Compound I-6]

IC50 (Recombinant human BACE1): 0.012 µM | IC50 [4]: 0.002 µM
SMILES: CCC1=C[C@@](C)(c2cc(NC(=O)c3ccc(C#N)cn3)ccc2F)N=C(N)S1 [Compound I-8]
